Test results taken from patent US20260217701A1, “SELECTIVE BET INHIBITORS AND USES THEREOF” (Tay Therapeutics Limited, priority 2022, published 2026).
“And” between values parts separate entries of the source, which are not always exact repeats. Identical values can stand only once. Like-named read-outs stand apart in the source and are kept apart here.

Test: CIA study: pharmacokinetics / plasma concentration after oral administration
Format: in vivo, Lewis rats
Details: for MRT inf: read-out: MRTInf—obs; for concentration at 2 h / concentration at 4 h / concentration at 6 h / concentration at 8 h / concentration at 0.25 h / concentration at 0.5 h / concentration at 1 h / concentration at 24 h / Plasma Concentration: oral 3 mg/kg

Structure (SMILES): Cn1cc(-c2ccccc2)c(-c2cn(C)c(=O)c3[nH]c(-c4cnn(C(F)(F)F)c4)cc23)cc1=O [Compound A, 6-methyl-4-(1-methyl-2-oxo-5-phenyl-1,2-dihydropyridin-4-yl)-2-(1-(trifluoromethyl)-1H-pyrazol-4-yl)-1,6-dihydro-7H-pyrrolo[2,3-c]pyridin-7-one]
- Cmax (Lewis, rat, plasma, po, 3 mg/kg, CIA-induced animals, day 0, 3 mg/kg, individual test subjects, read-out: Cmax): 123 ng/mL
- MRT inf (Lewis, rat, plasma, po, 3 mg/kg, CIA-induced animals, day 0, 3 mg/kg, individual test subjects): 14.1 h
- half-life (Lewis, rat, plasma, po, 3 mg/kg, CIA-induced animals, day 0, 3 mg/kg, individual test subjects, read-out: T1/2 (converted)): 9.19 h
- Tmax (Lewis, rat, plasma, po, 3 mg/kg, CIA-induced animals, day 0, 3 mg/kg, individual test subjects, read-out: Tmax): 6 h
- AUC(0-t) (Lewis, rat, plasma, po, 3 mg/kg, CIA-induced animals, day 21, 3 mg/kg, average, read-out: AUClast (Mean)): 738 ng·h/mL
- Cmax (Lewis, rat, plasma, po, 3 mg/kg, CIA-induced animals, day 21, 3 mg/kg, average, read-out: Cmax (Mean)): 48.4 ng/mL
- half-life (Lewis, rat, plasma, po, 3 mg/kg, CIA-induced animals, day 21, 3 mg/kg, average, read-out: T1/2 (Mean) (converted)): 8.9 h
- Tmax (Lewis, rat, plasma, po, 3 mg/kg, CIA-induced animals, day 21, 3 mg/kg, average, read-out: Tmax (Mean)): 5.33 h
- AUC(0-inf) (Lewis, rat, plasma, po, 3 mg/kg, CIA-induced animals, day 21, 3 mg/kg, individual test subjects, read-out: AUCInf): 668 ng·h/mL
- AUC(0-t) (Lewis, rat, plasma, po, 3 mg/kg, CIA-induced animals, day 21, 3 mg/kg, individual test subjects, read-out: AUClast): 604 ng·h/mL
- Cmax (Lewis, rat, plasma, po, 3 mg/kg, CIA-induced animals, day 21, 3 mg/kg, individual test subjects, read-out: Cmax): 48.3 ng/mL
- MRT inf (Lewis, rat, plasma, po, 3 mg/kg, CIA-induced animals, day 21, 3 mg/kg, individual test subjects): 10.1 h
- half-life (Lewis, rat, plasma, po, 3 mg/kg, CIA-induced animals, day 21, 3 mg/kg, individual test subjects, read-out: T1/2 (converted)): 6.79 h
- Tmax (Lewis, rat, plasma, po, 3 mg/kg, CIA-induced animals, day 21, 3 mg/kg, individual test subjects, read-out: Tmax): 4 h
- concentration at 2 h (Lewis, rat, plasma, po, 3 mg/kg, day 0, 2 h, individual test subjects, read-out: Plasma concentration): 109 ng/mL
- concentration at 4 h (Lewis, rat, plasma, po, 3 mg/kg, day 0, 4 h, individual test subjects, read-out: Plasma concentration): 112 ng/mL
- concentration at 6 h (Lewis, rat, plasma, po, 3 mg/kg, day 0, 6 h, individual test subjects, read-out: Plasma concentration): 123 ng/mL
- concentration at 8 h (Lewis, rat, plasma, po, 3 mg/kg, day 0, 8 h, individual test subjects, read-out: Plasma concentration): 119 ng/mL
- concentration at 0.25 h (Lewis, rat, plasma, po, 3 mg/kg, day 0, time 0.25, read-out: Mean Concentration (average plasma concentration)): 16.8 ng/mL
- concentration at 0.5 h (Lewis, rat, plasma, po, 3 mg/kg, day 0, time 0.5, read-out: Mean Concentration (average plasma concentration)): 28.1 ng/mL
- concentration at 1 h (Lewis, rat, plasma, po, 3 mg/kg, day 0, time 1, read-out: Mean Concentration (average plasma concentration)): 51.1 ng/mL
- concentration at 2 h (Lewis, rat, plasma, po, 3 mg/kg, day 0, time 2, read-out: Mean Concentration (average plasma concentration)): 79 ng/mL
- concentration at 4 h (Lewis, rat, plasma, po, 3 mg/kg, day 0, time 4, read-out: Mean Concentration (average plasma concentration)): 90 ng/mL
- concentration at 6 h (Lewis, rat, plasma, po, 3 mg/kg, day 0, time 6, read-out: Mean Concentration (average plasma concentration)): 94 ng/mL
- concentration at 8 h (Lewis, rat, plasma, po, 3 mg/kg, day 0, time 8, read-out: Mean Concentration (average plasma concentration)): 90 ng/mL
- concentration at 24 h (Lewis, rat, plasma, po, 3 mg/kg, day 0, time 24): 22.3 ng/mL
- concentration at 0.25 h (Lewis, rat, plasma, po, 3 mg/kg, day 21, 0.25 h, individual test subjects, read-out: Plasma concentration): 18.4 ng/mL
- concentration at 0.5 h (Lewis, rat, plasma, po, 3 mg/kg, day 21, 0.5 h, individual test subjects, read-out: Plasma concentration): 22.2 ng/mL
- concentration at 1 h (Lewis, rat, plasma, po, 3 mg/kg, day 21, 1 h, individual test subjects, read-out: Plasma concentration): 33.6 ng/mL
- concentration at 2 h (Lewis, rat, plasma, po, 3 mg/kg, day 21, 2 h, individual test subjects, read-out: Plasma concentration): 33 ng/mL
- concentration at 4 h (Lewis, rat, plasma, po, 3 mg/kg, day 21, 4 h, individual test subjects, read-out: Plasma concentration): 48.3 ng/mL
- concentration at 6 h (Lewis, rat, plasma, po, 3 mg/kg, day 21, 6 h, individual test subjects, read-out: Plasma concentration): 44.2 ng/mL
- concentration at 8 h (Lewis, rat, plasma, po, 3 mg/kg, day 21, 8 h, individual test subjects, read-out: Plasma concentration): 30.9 ng/mL
- concentration at 0.25 h (Lewis, rat, plasma, po, 3 mg/kg, day 21, time 0.25, read-out: Mean Concentration (average plasma concentration)): 15.4 ng/mL
- concentration at 0.5 h (Lewis, rat, plasma, po, 3 mg/kg, day 21, time 0.5, read-out: Mean Concentration (average plasma concentration)): 21 ng/mL
- concentration at 1 h (Lewis, rat, plasma, po, 3 mg/kg, day 21, time 1, read-out: Mean Concentration (average plasma concentration)): 28.7 ng/mL
- concentration at 2 h (Lewis, rat, plasma, po, 3 mg/kg, day 21, time 2, read-out: Mean Concentration (average plasma concentration)): 37.5 ng/mL
- concentration at 4 h (Lewis, rat, plasma, po, 3 mg/kg, day 21, time 4, read-out: Mean Concentration (average plasma concentration)): 45.8 ng/mL
- concentration at 6 h (Lewis, rat, plasma, po, 3 mg/kg, day 21, time 6, read-out: Mean Concentration (average plasma concentration)): 47 ng/mL
- concentration at 8 h (Lewis, rat, plasma, po, 3 mg/kg, day 21, time 8, read-out: Mean Concentration (average plasma concentration)): 40.6 ng/mL
- concentration at 24 h (Lewis, rat, plasma, po, 3 mg/kg, day 21, time 24): 12.2 ng/mL
- AUC (Lewis, rat, plasma, po, CIA-induced animals, day 21, 3 mg/kg, average, read-out: AUClnf (Mean)): 904 ng·h/mL
- Plasma Concentration (day 0, 0.25 h, individual test subjects, 3 mg/kg): 28.7 ng/mL and 12.9 ng/mL and 8.85 ng/mL
- Plasma Concentration (day 0, 0.5 h, individual test subjects, 3 mg/kg): 39.3 ng/mL and 25.4 ng/mL and 19.5 ng/mL
- Plasma Concentration (day 0, 1 h, individual test subjects, 3 mg/kg): 78.4 ng/mL and 40.1 ng/mL and 34.7 ng/mL
- Plasma Concentration (day 0, 2 h, individual test subjects, 3 mg/kg): 66.0 ng/mL and 62.7 ng/mL
- Plasma Concentration (day 0, 4 h, individual test subjects, 3 mg/kg): 77.9 ng/mL and 80.7 ng/mL
- Plasma Concentration (day 0, 6 h, individual test subjects, 3 mg/kg): 77.1 ng/mL and 82.6 ng/mL
- Plasma Concentration (day 0, 8 h, individual test subjects, 3 mg/kg): 76.1 ng/mL and 74.4 ng/mL
- Plasma Concentration (day 0, 24 h, individual test subjects, 3 mg/kg): 35.6 ng/mL and 14.1 ng/mL and 17.3 ng/mL
- Plasma Concentration (day 21, 0.25 h, individual test subjects, 3 mg/kg): 14.7 ng/mL and 13.1 ng/mL
- Plasma Concentration (day 21, 0.5 h, individual test subjects, 3 mg/kg): 20.9 ng/mL and 19.8 ng/mL
- Plasma Concentration (day 21, 1 h, individual test subjects, 3 mg/kg): 27.0 ng/mL and 25.5 ng/mL
- Plasma Concentration (day 21, 2 h, individual test subjects, 3 mg/kg): 45.6 ng/mL and 33.8 ng/mL
- Plasma Concentration (day 21, 4 h, individual test subjects, 3 mg/kg): 44.3 ng/mL and 44.7 ng/mL
- Plasma Concentration (day 21, 6 h, individual test subjects, 3 mg/kg): 51.2 ng/mL and 45.7 ng/mL
- Plasma Concentration (day 21, 8 h, individual test subjects, 3 mg/kg): 45.6 ng/mL and 45.3 ng/mL
- Plasma Concentration (day 21, 24 h, individual test subjects, 3 mg/kg): 6.60 ng/mL and 15.6 ng/mL and 14.4 ng/mL
